Data reported in patent US20220095663A1, “COMPLEX MUSHROOM MYCELIUM COMPOSITION HAVING LIVER FUNCTION-IMPROVING ACTIVITY AND PREPARATION METHOD THEREFOR” (GIUNCHAN CO., LTD., priority 2019, published 2022).

Assay: Antioxidation activity by DPPH method
Details: 50 μg/ml, positive control
Description: 7) Antioxidation activity measurement test: The antioxidation activity of each sample was measured by a DPPH method using 1.1-diphenyl-2-picrylhydrazyl. The positive control group was treated with BHT at a concentration of 50 μg/ml.

## Cc1cc(C(C)(C)C)c(O)c(C(C)(C)C)c1 [BHT]
  DPPH inhibition: 10%
